{
  "source": "patent US11801256B2",
  "about": "“Antidepressant-psilocybin co-treatment to assist psychotherapy” (Universitätsspital Basel, priority 2021, dated 2023)",
  "key": {"healthy subjects [1]": {"system": "healthy subjects", "assay": "Subjective effects, visual analog scales (VAS), clinical study", "format": "in vivo, human", "protocol": "(§1) Treatment order was random and counterbalanced.\nStudy procedures: Subjects took part in a 2-hour screening session, two 9.5-hour test sessions where the psilocybin was administered and a 1-hour end-of-study visit. The subjects were informed about the study both verbally and by the approved written consent form regarding the altered state of consciousness, the study procedures and associated risks. The investigator and the subject both personally signed and dated the consent form as confirmation of consent. Subjects were screened using a semi-structured clinical interview for DSM-IV (Diagnostic and Statistical Manual Version 4) (Wittchen et al., 1997) to exclude those with a personal or family (first-degree relative) axis I major psychiatric disorder (acute or past) or a history of illicit drug dependence. Axis I major psychiatric disorders included also addiction disorders. The sessions were conducted in a calm standard hospital room. Only one research subject and one investigator were present during the test sessions. The test sessions began at 9 AM. The subjects then underwent baseline measurements. […] Psilocybin was administered at 11:00 AM. The outcome measures were repeatedly assessed for 7 hours. The subjects were under constant supervision by an investigator until 6 PM. Thus, the subjects were never alone during the 7 hours after drug administration. The subjects were sent home at 6:30 PM.\nSubjective Effects Questionnaire (Visual Analog Scales, VAS): VAS was repeatedly used to assess subjective alterations in consciousness over time. Single scales were presented as 100 mm horizontal lines marked with “not at all” on the left and “extremely” on the right. The following VAS items were used: “any drug effect”, “good drug effect”, “bad drug effect”, “drug liking”, “drug high”, “stimulated”, “fear”, “happy”, “content”, “trust”, “talkative”, “perception of time”, “open”, “concentration”, “speed of thinking”, “feeling close to others”, “wanting to be hugged”, “wanting to hug someone”, “desire to be alone”, “desire to be with others”, and “ego dissolution”. The VASs were presented as 100-mm horizontal lines (0-100%), marked from “not at all” on the left to “extremely” on the right. Some VASs were bidirectional (±50%). Marked from “not at all” on the left (−50), to “normal” in the middle (0), to “extremely” on the right (+50).\n(§2) The criterion for significance was p<0.05."}, "healthy subjects [2]": {"system": "healthy subjects", "assay": "Adjective Mood Rating Scale (AMRS)", "format": "in vivo, human", "details": "escitalopram 14 days pretreatment vs placebo; P=0.007", "protocol": "as §1\nThe 60-item Adjective Mood Rating Scale (AMRS) (Janke & Debus, 1978) was administered before and 2, 3, 5, and 7 hours after psilocybin administration.\nas §2"}, "healthy subjects [3]": {"system": "healthy subjects", "assay": "5 Dimensions of Altered States of Consciousness Scale (5D-ASC)", "format": "in vivo, human", "details": "escitalopram 14 days pretreatment vs placebo", "description": "as §1\n5-Dimensional Altered States of Consciousness (5D-ASC): The 5-dimensional Altered States of Consciousness (5D-ASC) Scale is a visual analog scale consisting of 94 items (Dittrich, 1998; Studerus et al., 2010). The instrument contains five main scales (FIG. 17) and 11 newer subscales (FIG. 18) assessing mood, anxiety, derealization, depersonalization, changes in perception, auditory alterations, and reduced vigilance. The scale is well-validated (Studerus et al., 2010). The total ASC score is the sum of the three main dimensions/scales Oceanic Boundlessness (OB), Anxious Ego Dissolution (AED) and Visionary Restructuralization (VR). There are two additional main scales measuring Auditory Alterations (AA) and Vigilance Reduction (VIR) (FIG. 17). The 5D-ASC scale was administered once at the end of the session and subjects were instructed to retrospectively rate peak alterations that have been experienced during the study session. Each item of the scale is scored on a 0-100 mm VAS. The attribution of the individual items to the subscales of the 5D-ASC was analyzed according to (Dittrich, 1998; Studerus et al., 2010) and as shown in FIG. 18. The scale was be administered once at the end of each test session."}, "healthy subjects [4]": {"system": "healthy subjects", "assay": "Adverse effects (list of complaints) and adverse events", "format": "in vivo, human", "protocol": "as §1\nAdverse effects (list of complaints): The list of complaints (LC) consists of 66 items offering a global score measuring physical and general discomfort (Zerssen, 1976). This scale yields a total adverse effects score and reliably measures physical and general discomfort. The LC list was administered 7 hours after administration of the drug with reference to complaints throughout the entire session."}, "[5]": {"assay": "Plasma drug concentrations and pharmacokinetic analyses", "format": "in vivo, human", "details": "for concentration at 14 days: human, in vivo", "protocol": "The blood samples were immediately centrifuged, and the plasma was subsequently stored at −80° C. until analysis.\nThis allows to determine the concentrations of unconjugated psilocin and of psilocin glucuronide which corresponds to the difference between samples that were incubated with and without glucuronidase."}, "CYP2C19": {"target": "CYP2C19 (Homo sapiens, UniProt P33261)", "sequence (P33261 whole entry)": "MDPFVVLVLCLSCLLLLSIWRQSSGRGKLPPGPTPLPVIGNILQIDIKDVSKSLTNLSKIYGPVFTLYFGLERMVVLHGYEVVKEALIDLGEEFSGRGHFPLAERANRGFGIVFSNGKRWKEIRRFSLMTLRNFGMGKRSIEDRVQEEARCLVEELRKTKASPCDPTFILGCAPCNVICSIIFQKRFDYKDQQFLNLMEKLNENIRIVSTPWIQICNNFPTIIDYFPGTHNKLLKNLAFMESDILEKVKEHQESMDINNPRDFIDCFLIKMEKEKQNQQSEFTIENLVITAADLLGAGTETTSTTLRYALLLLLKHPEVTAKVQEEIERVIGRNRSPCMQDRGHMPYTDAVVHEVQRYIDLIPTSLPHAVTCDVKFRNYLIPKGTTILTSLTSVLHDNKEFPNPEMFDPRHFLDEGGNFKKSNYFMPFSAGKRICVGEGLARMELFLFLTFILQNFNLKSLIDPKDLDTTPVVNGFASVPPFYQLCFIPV", "details": "FDA, 2017; Swissmedic, 2020; cited from earlier work"}, "[6]": {"details": "escitalopram 14 days pretreatment vs placebo"}, "[7]": {"details": "escitalopram 14 days pretreatment vs placebo, P=0.004"}, "[8]": {"details": "escitalopram pretreatment compared with placebo pretreatment (summary)"}, "[9]": {"details": "any time during escitalopram pretreatment"}},
  "note": "Like-named read-outs stand apart in the source and are kept apart here.",
  "data": [
    {"smiles": "CN(C)CCC[C@@]1(c2ccc(F)cc2)OCc2cc(C#N)ccc21", "note": "[Escitalopram, escitalopram]", "values": [
      {"measurement": "effect on good drug effects of psilocybin", "setting": "healthy subjects [1]; [6]", "value": "did not significantly reduce"},
      {"measurement": "reduction of peak anxiety induced by psilocybin", "setting": "healthy subjects [1]; [7]", "value": 50, "unit": "%"},
      {"measurement": "reduction of peak bad drug effects induced by psilocybin", "setting": "healthy subjects [1]; [7]", "value": 50, "unit": "%"},
      {"measurement": "effect on any drug effects in response to psilocybin", "setting": "healthy subjects [1]; escitalopram 14 days pretreatment vs placebo, P=0.015", "value": "slightly, but significantly reduced"},
      {"measurement": "effect on the response to psilocybin, overall", "setting": "healthy subjects [1]; escitalopram pretreatment 14 days (10 mg 7 days, 20 mg 7 days) before 25 mg psilocybin, compared to placebo pretreatment", "value": "only a small effect"},
      {"measurement": "effect on psilocybin-induced fear", "setting": "healthy subjects [1]; escitalopram pretreatment compared to psilocybin alone (summary)", "value": "reduced"},
      {"measurement": "effect on anxiety of psilocybin (in words)", "setting": "healthy subjects [1]; [8]", "value": "significantly reduced"},
      {"measurement": "effect on bad drug effects of psilocybin (in words)", "setting": "healthy subjects [1]; [8]", "value": "significantly reduced"},
      {"measurement": "effect on the positive mood effects of psilocybin", "setting": "healthy subjects [1]; [8]", "value": "no relevant effect"},
      {"measurement": "effect on psilocybin-induced anxiety in the AMRS", "setting": "healthy subjects [2]", "value": "significantly reduced"},
      {"measurement": "effect on psilocybin-induced anxiety in the 5D-ASC", "setting": "healthy subjects [3]; P=0.026", "value": "significantly reduced"},
      {"measurement": "effect on psilocybin-induced anxious ego dissolution in the 5D-ASC", "setting": "healthy subjects [3]; P=0.029", "value": "significantly reduced"},
      {"measurement": "adverse events during pretreatment: bruxism", "setting": "healthy subjects [4]; [9]", "value": 2, "unit": "subjects"},
      {"measurement": "adverse events during pretreatment: decreased libido", "setting": "healthy subjects [4]; [9]", "value": 5, "unit": "subjects"},
      {"measurement": "adverse events during pretreatment: diarrhea", "setting": "healthy subjects [4]; [9]", "value": 2, "unit": "subjects"},
      {"measurement": "adverse events during pretreatment: difficulty concentrating", "setting": "healthy subjects [4]; [9]", "value": 1, "unit": "subjects"},
      {"measurement": "adverse events during pretreatment: dizziness", "setting": "healthy subjects [4]; [9]", "value": 2, "unit": "subjects"},
      {"measurement": "adverse events during pretreatment: dysorgasmia", "setting": "healthy subjects [4]; [9]", "value": 2, "unit": "subjects"},
      {"measurement": "adverse events during pretreatment: feeling depressed", "setting": "healthy subjects [4]; [9]", "value": 3, "unit": "subjects"},
      {"measurement": "adverse events during pretreatment: headache", "setting": "healthy subjects [4]; [9]", "value": 6, "unit": "subjects"},
      {"measurement": "adverse events during pretreatment: increased appetite", "setting": "healthy subjects [4]; [9]", "value": 2, "unit": "subjects"},
      {"measurement": "adverse events during pretreatment: insomnia", "setting": "healthy subjects [4]; [9]", "value": 2, "unit": "subjects"},
      {"measurement": "adverse events during pretreatment: loss of appetite", "setting": "healthy subjects [4]; [9]", "value": 3, "unit": "subjects"},
      {"measurement": "adverse events during pretreatment: nausea", "setting": "healthy subjects [4]; [9]", "value": "eight"},
      {"measurement": "adverse events during pretreatment: restless legs", "setting": "healthy subjects [4]; [9]", "value": 2, "unit": "subjects"},
      {"measurement": "adverse events during pretreatment: tiredness", "setting": "healthy subjects [4]; [9]", "value": 6, "unit": "subjects"},
      {"measurement": "adverse events during pretreatment: visual disturbance", "setting": "healthy subjects [4]; [9]", "value": 1, "unit": "subjects"},
      {"measurement": "effect on other adverse effects of psilocybin", "setting": "healthy subjects [4]; [8]", "value": "significantly reduced"},
      {"measurement": "severe adverse event (symptomatic vertebral disc hernia)", "setting": "healthy subjects [4]; participant on escitalopram pretreatment, five days, prior to psilocybin", "value": "one"},
      {"measurement": "peak plasma concentrations (mean, range)", "setting": "[5]; after 14 days escitalopram (10 mg 7 days, 20 mg 7 days)", "value": "41 (35-53) ng/mL"},
      {"measurement": "effect on the pharmacokinetics of 4-HIAA", "setting": "[5]; [6]", "value": "did not relevantly or significantly alter"},
      {"measurement": "effect on the pharmacokinetics of psilocin", "setting": "[5]; [6]", "value": "did not relevantly or significantly alter"},
      {"measurement": "effect on the pharmacokinetics of psilocin glucuronide", "setting": "[5]; [6]", "value": "did not relevantly or significantly alter"},
      {"measurement": "concentration at 14 days", "setting": "[5]; after 14 days escitalopram (10 mg 7 days, 20 mg 7 days), read-out: plasma concentrations (mean, range)", "value": 41, "unit": "ng/mL"},
      {"measurement": "concentration at 14 days", "setting": "[5]; after 14 days escitalopram, described as high, read-out: plasma concentrations in all subjects", "value": "< 35", "unit": "ng/mL"},
      {"measurement": "inhibition of CYP2C19 function", "setting": "CYP2C19", "value": "slightly inhibits"}
    ]}
  ]
}
